PubChem BioAssay AID493062 (The Scripps Research Institute Molecular Screening Center, 2011)

Columns and labels:
2B4/MCL-1 = assay: caspase activation in 2B4/MCL-1 versus 2B4/BCL-2 cells, late-stage follow-up, selectivity assay for MCL1-BIM inhibitor project, cell-based, fluorescence, assay provider data (AID 493062); settings: 2B4/MCL-1 caspase activation fluorescence
2B4/BCL-2 = assay: as above; settings: 2B4/MCL-1 caspase activation fluorescence

EC50 (2B4/MCL-1) [µM]	EC50 (2B4/BCL-2) [µM]	SMILES
> 25	> 25	O=C(c1cc(-c2ccco2)nc2ccccc12)N(Cc1nnc(-c2ccc(Cl)cc2)o1)C1CC1
> 25	> 25	Cc1ccc(-c2cc(C(=O)Nc3ccccc3C)c3ccccc3n2)o1
> 25	> 25	CN(C)C(CNC(=O)c1cc(-c2ccco2)nc2ccccc12)c1ccccc1 (configuration not stated)
> 25	> 25	Cc1nnc(NC(=O)c2cc(-c3ccco3)nc3ccccc23)s1
> 25	> 25	COCCCN(C(=O)c1cc(-c2ccco2)nc2ccccc12)c1c(N)n(Cc2ccccc2)c(=O)[nH]c1=O
> 25	> 25	O=C(NC(=S)Nc1cccc(S(=O)(=O)NC2=NCCC2)c1)c1cc(-c2ccco2)nc2ccccc12
> 25	> 25	COc1ccc(Cc2nnc(NC(=O)Cc3ccc(-c4ccccc4)cc3)s2)cc1OC
> 25	> 25	CCCCn1c(N)c(N(CCOC)C(=O)c2cc(-c3ccco3)nc3ccccc23)c(=O)[nH]c1=O
> 25	> 25	COc1ccc(Cc2nnc(NC(=O)Cc3ccccc3C)s2)cc1OC
> 25	> 25	Cc1cccc(NC(=O)c2cc(-c3ccco3)nc3ccccc23)n1
> 25	> 25	COc1cccc(NC(=O)CN(C)C(=O)c2cc(-c3ccc(C)o3)nc3ccccc23)c1
> 25	> 25	O=C(NCCCN1CCOCC1)c1cc(-c2ccco2)nc2ccccc12
> 25	> 25	COc1ccc(Cc2nnc(NC(=O)Cc3ccc4c(c3)OCO4)s2)cc1OC
> 25	> 25	CN(CCOc1ccccc1)C(=O)c1cc(-c2ccco2)nc2ccccc12
> 25	> 25	O=C(Nc1cccc(S(=O)(=O)NC2=NCCCCC2)c1)c1cc(-c2ccco2)nc2ccccc12
> 25	> 25	Cc1ccc(-c2cc(C(=O)Nc3cccnc3)c3ccccc3n2)o1
> 25	> 25	CCCCCCNC(=O)c1cc(-c2ccco2)nc2ccccc12
> 25	> 25	CN(CCOc1ccc(Cl)cc1)C(=O)c1cc(-c2ccco2)nc2ccccc12
> 25	> 25	CC(=O)N1CCN(C(=O)c2cc(-c3ccc(C)o3)nc3ccccc23)CC1
> 25	> 25	CCN(CC)C(=O)COc1ccc2c(-c3ccccc3)cc(=O)oc2c1
> 25	> 25	O=C(Nc1cccc(F)c1)c1cc(-c2ccco2)nc2ccccc12

EC50 (2B4/MCL-1) [µM]	EC50 (2B4/BCL-2) [µM]	SMILES
> 25	> 25	Cc1ccc(-c2cc(C(=O)NCC(c3ccccc3)N(C)C)c3ccccc3n2)o1 (configuration not stated)
> 25	> 25	O=C(Nc1ccccc1F)c1cc(-c2ccco2)nc2ccccc12
> 25	> 25	CN(C)C(=O)c1ccc(NC(=O)c2cc(-c3ccco3)nc3ccccc23)cc1
> 25	> 25	CCN(CC)C(=O)COc1ccc2c(-c3ccc(OC)cc3)cc(=O)oc2c1C
40	40	Cc1ccnc(NC(=O)c2cc(-c3ccc(C)o3)nc3ccccc23)c1
> 25	> 25	CCc1nnc(NC(=O)c2cc(-c3ccc(C)o3)nc3ccccc23)s1
> 25	> 25	CCCN(C(=O)c1cc(-c2ccco2)nc2ccccc12)c1c(N)n(Cc2ccccc2)c(=O)[nH]c1=O
> 25	> 25	COc1ccc(NC(=O)c2cc(-c3ccco3)nc3ccccc23)cc1S(=O)(=O)N1CCOCC1
> 25	> 25	COc1ccc(Cc2nnc(NC(=O)Cc3ccccn3)s2)cc1OC
> 25	> 25	Cc1ccc(NC(=O)c2cc(-c3ccco3)nc3ccccc23)cc1S(=O)(=O)N1CCOCC1
> 25	> 25	O=C(Cc1cccs1)Nc1nnc(Cc2ccccc2)s1
10	> 25	O=C(Nc1cccnc1)c1cc(-c2ccco2)nc2ccc(Br)cc12
0.8	1.5	COc1ccc(Cc2nnc(NC(=O)CCc3ccco3)s2)cc1OC
> 25	> 25	Cc1ccc(-c2cc(C(=O)N3CCN(c4ncccn4)CC3)c3cc(Br)ccc3n2)o1
> 25	> 25	Cc1ccc(-c2cc(C(=O)Nc3ccccc3C(N)=O)c3ccccc3n2)o1
> 25	> 25	COc1ccc(NC(=O)CN(C)C(=O)c2cc(-c3ccc(C)o3)nc3ccccc23)cc1
> 25	> 25	CCN(CC)C(=O)COc1ccc2c(-c3ccc(OC)cc3)cc(=O)oc2c1
> 25	> 25	O=C(Nc1ccc(F)cc1F)c1cc(-c2ccco2)nc2ccccc12
> 25	> 25	Cc1ccc(S(=O)(=O)N(C)C)cc1NC(=O)c1cc(-c2ccco2)nc2ccccc12
> 25	> 25	O=C(CCn1nnc2ccccc21)Nc1nnc(Cc2ccc(F)cc2)s1
> 25	> 25	Cc1ccc(-c2cc(C(=O)Nc3ccccn3)c3ccccc3n2)o1

EC50 (2B4/MCL-1) [µM]	EC50 (2B4/BCL-2) [µM]	SMILES
> 25	> 25	Cc1ccc(-c2cc(C(=O)NCCCn3ccnc3)c3cc(Br)ccc3n2)o1
> 25	> 25	O=C(c1cc(-c2ccco2)nc2ccccc12)N1CCN(Cc2ccccc2)CC1
> 25	> 25	COc1ccc(Cc2nnc(NC(=O)Cc3ccc4ccccc4c3)s2)cc1OC
> 25	> 25	COc1ccc(NC(=O)c2cc(-c3ccc(C)o3)nc3ccccc23)c(OC)c1
> 25	> 25	COc1ccc(CCNC(=O)c2cc(-c3ccco3)nc3ccccc23)cc1
> 25	> 25	COCCN(C(=O)c1cc(-c2ccco2)nc2ccccc12)c1c(N)n(Cc2ccccc2)c(=O)[nH]c1=O
> 25	> 25	Cc1ccc(NC(=O)c2cc(-c3ccc(C)o3)nc3ccccc23)cc1
> 25	> 25	COc1cccc(CC(=O)Nc2nnc(Cc3ccc(OC)c(OC)c3)s2)c1
> 25	> 25	O=C(c1cc(-c2ccco2)nc2ccccc12)N1CCCC(C(F)(F)F)C1 (configuration not stated)
> 25	> 25	O=C(Nc1cccc(S(=O)(=O)NC2=NCCC2)c1)c1cc(-c2ccco2)nc2ccccc12
> 25	> 25	COc1ccc(Cc2nnc(NC(=O)Cc3cccs3)s2)cc1
> 25	> 25	COc1cccc(NC(=O)c2cc(-c3ccc(C)o3)nc3ccccc23)c1
> 25	> 25	COc1ccc(Cc2nnc(NC(=O)Cc3cccs3)s2)cc1OC
> 25	> 25	COc1ccc(NC(=O)c2cc(-c3ccco3)nc3ccccc23)cn1
> 25	> 25	COc1ccc(NC(=O)c2cc(-c3ccc(C)o3)nc3ccccc23)cc1OC
> 25	> 25	Cc1ccc(-c2cc(C(=O)N3CCOCC3)c3ccccc3n2)o1
> 25	> 25	CCCC(=O)Nc1nnc(Cc2ccccc2)s1
> 25	> 25	O=C(c1cc(-c2ccco2)nc2ccccc12)N1CCN(c2ccc(F)cc2)CC1
> 25	> 25	COc1ccc(Cc2nnc(CC(=O)Nc3cccs3)s2)cc1
